Assay results: patent US7052850B2, “Isolated human EDG-4 receptor” (priority 1997, dated 2006)
Entries after “also recorded” stand apart in the source; their conditions may differ.

Legend:
HL-60 cells = experiment: IL-8 response in HL-60 cells; format: cell-based, human; conditions: 1, 6 or 24 hours, S1P or LPA up to 3 μM, TNF-α 10 ng/ml
293-EBNA cells = experiment: IL-8 production in 293-EBNA cells; format: cell-based; conditions: untransfected
human EDG-3 = experiment: NF-κB luciferase reporter in 293-EBNA cells, human EDG-3; format: cell-based; conditions: for NF-κB response: original human EDG-3 clone (Assay 2)
Experimental: The above protocol for assay 1 was followed except for the following changes: • 1) 100 mm plates of 293-EBNA with a confluency of ˜80% were used for transfection. • 2) 3 μg NFκB-tk-p4Luc reporter DNA and 3 μg pC3-hedg1, pC3-hedg 3, pC3-redg4, pC3-hedg5 or pcDNA3 DNA was diluted in 240 μl OPTI-MEM (Gibco; Cat. 31985-062) • 3) 22 μl lipofectamine (Gibco; Cat. 1 8324-020) was diluted in 240 μl OPTI-MEM. • 4) The 293-EBNA plates were washed once with PBS and 7 ml OPTI-MEM was added to each plate. • 5) DNA/lipofectamine mixture was added to each plate of 293-EBNA cells. The plates were left for 4 hrs at 37° C. in a 5% CO2 incubator. Day 2: • 1) 0.01×10^6 cells were plated per well of 96-well Blackview plate coated with polyD-lysine. No cells were plated in the outside wells of the 96-well plate. Day 3: The following treatments were used for all transections:
Expression plasmid and reporter plasmid DNA samples were combined and diluted in 750 μl of DMEM/F12 (serum free media) and 20 μl Plus Reagent (Lipofectamine Plus Kit, Life Technologies Cat. 109640-13), and incubated at room temperature for 15 min. • 3) 30 μl Lipofectamine Reagent (Lipofectamine Plus Kit) was diluted in 750 μl DMEM/F12. The diluted Lipofectamine was then combined with the DNA/Plus mixture and incubated at room temperature for 15 min. • 4) The 293-EBNA plates were washed once with PBS and 5 ml DMEM/F12 was added to each plate. • 5) DNA/Plus/Lipofectamine mixture was added to each plate of 293-EBNA cells. The plates were left for 3 hr at 37° C. in a 5% CO2 incubator. • 6) The transfection medium was replaced with serum-free DMEM/F12 for cells transfected with 2XSREtk-p4Luc-zeo reporter DNA and with DMEM/F12 plus 10% FBS for cells transfected with 6XNFκBtk-p4Luc-zeo reporter DNA. • Day 2. • 2) Transfected cells were harvested by trypsinization and 50,000 cells per well were plated in 96-well Blackview plates coated with poly D-lysine Becton Dickinson Labware, Cat. 40640). […]

human EDG-4 [1] = molecular target: T1, human EDG-4 (Homo sapiens, UniProt O95136, F273L/I205V); experiment: NF-κB luciferase reporter in 293-EBNA cells, human EDG-4; format: cell-based; conditions: Assay 3; pC3-hedg4#36; 3 μM; 6 hours
T1 construct: a 1059 bp open reading frame (excluding the stop codon) corresponding to the complete human edg-4 coding region; expressed in transfected cells; host or cells: 293-EBNA
T1 sequence (O95136 whole entry I205V/F273L): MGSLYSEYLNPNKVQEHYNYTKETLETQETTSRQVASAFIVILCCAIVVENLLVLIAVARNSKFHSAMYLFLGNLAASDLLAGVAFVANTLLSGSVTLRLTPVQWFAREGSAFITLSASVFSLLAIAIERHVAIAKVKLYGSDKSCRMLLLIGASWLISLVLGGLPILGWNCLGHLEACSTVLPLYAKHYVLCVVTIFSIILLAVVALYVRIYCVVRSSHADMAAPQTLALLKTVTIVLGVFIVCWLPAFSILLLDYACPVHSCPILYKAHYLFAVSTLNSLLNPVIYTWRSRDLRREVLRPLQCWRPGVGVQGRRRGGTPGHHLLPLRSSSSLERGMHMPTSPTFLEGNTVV
Experimental: The protocol described in Example 11 for Assay 1 was allowed except for the following changes: • 1) 100 mm plates of 293-EBNA ith a confluency of ˜80% were used for transfection, • 2) SRE Cotransfection: 0.5 μg of 2XSREtk-p4Luc-zeo reporter DNA and 3.5 μg pcDNA3, EDG-1, EDG-3 pC3-hE3P2, different from the clone used in Assay 2 of Example 11) or the newly cloned human EDG-4 (pC3-hedg4#36); NF-κB Cotransfection: 2 μg 6XNFκBtk-p4LUc-zeo reporter DNA and 2.0 μg pcDNA3, EDG-1, EDG-3 (pC3-hE3HP2), or EDG-4 (pC3-hedg4#36). Expression plasmid and reporter plasmid DNA samples were combined and diluted in 750 μl of DMEM/F12 (serum free media) and 20 μl Plus Reagent (Lipofectamine Plus Kit, Life Technologies Cat. 109640-13), and incubated at room temperature for 15 min. • 3) 30 μl Lipofectamine Reagent (Lipofectamine Plus Kit) was diluted in 750 μl DMEM/F12. The diluted Lipofectamine was then combined with the DNA/Plus mixture and incubated at room temperature for 15 min. • 4) The 293-EBNA plates were washed once with PBS and 5 ml DMEM/F12 was added to each plate. • 5) DNA/Plus/Lipofectamine mixture was added to each plate of 293-EBNA cells. […]

[2] = system: pcDNA3-transfected 293-EBNA cells; experiment: SRE luciferase reporter in 293-EBNA cells, empty vector pcDNA3; format: cell-based; conditions: for SRE reporter response: Assay 3, 3 μM
Experimental: The protocol described in Example 11 for Assay 1 was allowed except for the following changes: • 1) 100 mm plates of 293-EBNA ith a confluency of ˜80% were used for transfection, • 2) SRE Cotransfection: 0.5 μg of 2XSREtk-p4Luc-zeo reporter DNA and 3.5 μg pcDNA3, EDG-1, EDG-3 pC3-hE3P2, different from the clone used in Assay 2 of Example 11) or the newly cloned human EDG-4 (pC3-hedg4#36); NF-κB Cotransfection: 2 μg 6XNFκBtk-p4LUc-zeo reporter DNA and 2.0 μg pcDNA3, EDG-1, EDG-3 (pC3-hE3HP2), or EDG-4 (pC3-hedg4#36). Expression plasmid and reporter plasmid DNA samples were combined and diluted in 750 μl of DMEM/F12 (serum free media) and 20 μl Plus Reagent (Lipofectamine Plus Kit, Life Technologies Cat. 109640-13), and incubated at room temperature for 15 min. • 3) 30 μl Lipofectamine Reagent (Lipofectamine Plus Kit) was diluted in 750 μl DMEM/F12. The diluted Lipofectamine was then combined with the DNA/Plus mixture and incubated at room temperature for 15 min. • 4) The 293-EBNA plates were washed once with PBS and 5 ml DMEM/F12 was added to each plate. • 5) DNA/Plus/Lipofectamine mixture was added to each plate of 293-EBNA cells. The plates were left for 3 hr at 37° C. in a 5% CO2 incubator. • 6) The transfection medium was replaced with serum-free DMEM/F12 for cells transfected with 2XSREtk-p4Luc-zeo reporter DNA and with DMEM/F12 plus 10% FBS for cells transfected with 6XNFκBtk-p4Luc-zeo reporter DNA. • Day 2. • 2) Transfected cells were harvested by trypsinization and 50,000 cells per well were plated in 96-well Blackview plates coated with poly D-lysine Becton Dickinson Labware, Cat. 40640). No cells were plated in the outside wells of the 96-well plate. • Day 3. • 1) Media for cells transfected with 6XNF-κBtk-p4Luc-zeo reporter DNA was replaced with DMEM/F12 plus 0.5% FBS. • Day 4. • 1) Media was removed and cells treated with compounds diluted in DMEM/F12 media. The following treatments were used for all transfections:
Transfection was accomplished using the Lipofectamine Plus kit (Life Technologies, Cat. 10964-013), using the manufacturer's recommended conditions. Optimal SRE induction was seen when cells were seeded so as to become 100% confluent at the time of treatment, 72–96 hr after transfection.
293-EBNA cells were grown, lipofected in monolayer cultures, and pretreated as described above for Example 11, assay #1, except that NF-κB and AP-1 reporter-transfected cells were preteated for 6 hr in medium containing 0.5% […], then treated overnight in the same medium with or without 10 μM LPA.

human EDG-4 [3] = molecular target: T1, human EDG-4; experiment: Relative potency and efficacy of agonists, luciferase (SRE) reporter in 293-EBNA cells expressing recombinant human EDG-4; format: cell-based; conditions: for Rank (EMax): rank of efficacy
Experimental: Transfection of EDG-4, expression, pretreatment and treatment of 293-EBNA cells expressing recombinant human EDG-4 was carried out essentially as described in “Example 11. […] Results were tabulated in Microsoft Excel, and analyzed with GraphPad Prism sotfware. […] The luciferase response was expressed as fold response, after subtracting any endogenous response in pcDNA3-transfected cells at a given concentration of compound.

HeLa cells = experiment: IL-8 response (IL-8 ELISA) in HeLa cells; format: cell-based, human
Experimental: • Cells: HeLa (adenocarcinoma, human) • Media: DMEM/F12+10% FBS Adherent • 1) Cells were seeded at 0.2×10^6 cells/well in 6-well plates. • 2) Confluency of cells after 24–32 hrs was between 60–70%. B. Overnight Serum-Starvation • 1) Media was aspirated (no PBS wash). • 2) 1.5 ml 0.5% FBS media was added to each well. C. Treatments and Collection • 1) Made up all required solutions in 0.5% FBS media (control). Handling of […] for use in NF-κB experiments requires that sonication, commonly used to resuspend LPA, not be done; NF-κB may be activated by lipid peroxides created through vigorous frothing. Solutions:
D. Detection of Interleukin-8 (IL-8) using an IL-8 ELISA (Enzyme-Linked ImmunoSorbent Assay). • 1) The Quantikine Human IL-8 Immuno Assay Kit was obtained from R&D Systems (Cat. D8050). • 2) The kit and all samples were allowed to equlibrate to room temperature prior to use. • 3) All reagents were provided in the kit and prepared according to the instructions provided. • 4) The assay procedure was followed as recommended in the kit for cell culture supernatant samples. • 5) ELISA was performed on 50 μl samples of culture supernatant and duplicate samples were measured for each well. Each treatment was performed on triplicate wells. • 6) Plates were read on UV max kinetic microplate reader (Molecular Devices), set to 450 nm and correction set to 575 nm, using Wsoftmax sotware version 2.34.
• 1) Cells were seeded at 2.5×10^4 cells/well in 24-well plates. • 2) Confluency of cells after 24–32 hrs was between 60–70%. B. Overnight Serum-Starvation and PTX Pre-Treatment • 1) Media was aspirated (no PBS wash). • 2) 0.5 ml 0.5% FBS media was added to all wells not requiring PTX pre-treatment. • 3) For well requiring PTX; 0.5 ml 0.5% FBS media containing 50 ng/ml PTX (1 volume PTX (RBI Cat. P140): 1 volume DTT, incubate 37° C. for 30 minutes then dilute to 50 ng/ml) was added. C. Treatments and Collection • 1) Made up all required solutions in 0.5% FBS media (control). […] D. Refer to Procedure #1 For HeLa Cells (D).

## CCCCCCCCCCCCC/C=C/[C@@H](O)[C@@H](N)COP(=O)(O)O [S1P, sphingosine 1-phosphate]
HL-60 cells
  IL-8 release: no such release; also recorded: fail to produce IL-8 below the cytotoxic threshold
293-EBNA cells
  IL-8 production: no IL-8 production
Human EDG-3
  NF-κB response: did not produce a NF-κB response
Human EDG-4 [1]
  induction of the NF-κB reporter gene: 4.5 fold
[2]; pcDNA3 control
  SRE reporter response: about 1.5 fold
Human EDG-4 [3]
  agonist character at EDG-4: full agonists
  Rank (EMax): 2
Human EDG-4 [3]; 293-EBNA, relative efficacy, read-out: EMax (Percent)
  Emax: 86.7%

## CCCCCCCCCCCCC/C=C/[C@@H](O)[C@@H](N)COP(=O)([O-])OCC[N+](C)(C)C [SPC, sphingosylphosphorylcholine]
HeLa cells; 6 hours, concentration series
  IL-8 induction: can induce IL-8 in HeLa cells in a concentration-dependent manner; also recorded: significantly induced IL-8 production
Human EDG-3; Assay 3, pancreas EDG-3 clone, 3 μM
  induction of the NF-κB reporter gene compared to untreated controls: about 8 fold
Human EDG-3
  NF-κB response: did not produce a NF-κB response
Human EDG-4 [1]
  induction of the NF-κB reporter gene: 9 fold
[2]; pcDNA3 control
  SRE reporter response: not
[2]; Example 15A, pcDNA3 control, 3 μM SPC, 6 hr
  induction of the SRE reporter: about 2.5 fold
Human EDG-4 [3]
  agonist character at EDG-4: full agonists
  Rank (EMax): 1
Human EDG-4 [3]; relative efficacy
  EMax (Percent): 100%

## lysophosphatidic acid [LPA]
HeLa cells; 1 and 10 μM, 1, 6 or 24 hours
  IL-8 response: not
HL-60 cells
  IL-8 release: no such release
293-EBNA cells
  IL-8 production: no IL-8 production
[2]; pcDNA3, 10 μM LPA
  endogenous SRE reporter response vs untreated control cells: about 1.5 fold
